{"source": "patent US8129397B2", "about": "“Substituted thieno[2,3-d]pyrimidines as AMPA modulators” (MSD Oss B.V., priority 2007, dated 2012)", "key": {"AMPA (GluR1) receptor": {"biological_target": "T1, AMPA (GluR1) receptor (Homo sapiens, UniProt P42261)", "T1 construct": "expressed in transfected cells; host or cells: HEK cells (HEK.GluR1(i)), kept under hygromycin selection", "T1 sequence (P42261 19-906 isoform P42261-2 limits assumed, species assumed)": "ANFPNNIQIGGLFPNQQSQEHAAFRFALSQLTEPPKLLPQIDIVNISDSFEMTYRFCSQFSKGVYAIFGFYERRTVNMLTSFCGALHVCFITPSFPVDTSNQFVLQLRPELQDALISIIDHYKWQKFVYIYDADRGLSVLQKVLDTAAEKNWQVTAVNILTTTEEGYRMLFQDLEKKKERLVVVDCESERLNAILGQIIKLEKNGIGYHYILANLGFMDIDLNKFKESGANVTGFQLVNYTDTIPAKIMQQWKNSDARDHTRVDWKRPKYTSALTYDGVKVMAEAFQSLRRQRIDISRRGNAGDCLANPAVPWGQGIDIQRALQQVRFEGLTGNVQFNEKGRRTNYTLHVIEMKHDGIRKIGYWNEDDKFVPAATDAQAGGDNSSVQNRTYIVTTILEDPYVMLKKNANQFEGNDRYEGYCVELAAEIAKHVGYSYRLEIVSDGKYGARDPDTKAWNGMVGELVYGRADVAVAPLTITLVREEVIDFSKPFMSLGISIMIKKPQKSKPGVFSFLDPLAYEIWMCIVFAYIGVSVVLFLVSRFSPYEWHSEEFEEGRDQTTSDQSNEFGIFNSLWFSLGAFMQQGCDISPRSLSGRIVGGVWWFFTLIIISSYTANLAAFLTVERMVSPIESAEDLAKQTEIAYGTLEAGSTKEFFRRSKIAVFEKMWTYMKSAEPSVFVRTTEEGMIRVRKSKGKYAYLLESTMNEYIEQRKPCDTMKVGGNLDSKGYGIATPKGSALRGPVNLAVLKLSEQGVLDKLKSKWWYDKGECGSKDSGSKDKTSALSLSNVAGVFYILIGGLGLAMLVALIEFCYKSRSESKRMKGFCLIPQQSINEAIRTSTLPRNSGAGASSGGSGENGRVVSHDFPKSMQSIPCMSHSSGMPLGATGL", "experiment": "Ca2+ influx fluorescence assay (FLEXstation, HEK.GluR1(i) cells)", "type": "cell-based", "conditions": "Ca2+ influx in the presence of glutamate, Fluo-3, read-out: EC50, positive modulation of the AMPA receptor", "excerpt": "A: Ca^2+ Influx Fluorescence Assays\nThe compounds in this invention may be tested using a biological assay which measures Ca^2+ influx mediated through positive modulation of the AMPA (GluR1) receptor using standard techniques in the art such as, but not limited to, a FLEXstation (manufactured by Molecular Devices, Sunnyvale, Calif.). An optical readout using fluorescent probes is employed to measure ion channel dependent changes in intracellular ion concentration or membrane potential. The assay utilises the Ca^2+ conductance of functional homomeric GluR1(i) AMPA receptors to generate glutamate-dependent Ca^2+ responses. Influx of Ca^2+ through the ion channel is measured indirectly through an increase in intracellular Ca^2+ levels using the calcium sensitive dye such as, but not limited to, Fluo-3 (Molecular Devices, Sunnyvale, Calif.) in FLEXstation. A positive AMPA receptor modulator, in the presence of glutamate, will result in an influx of Ca^2+ through the ion channel which can be measured indirectly through an increase in intracellular Ca^2+ levels using the calcium sensitive dye Fluo-3 in FLEXstation.\nHEK.GluR1(i) cells were maintained in DMEM supplemented with 10% fetaclone II, 1% non-essential amino acids and 150 μg/mL hygromycin, at 37° C./5% CO2. […]"}, "[1]": {"test_system": "postnatal rat cortical neurones", "experiment": "Whole cell patch clamp recording of glutamate-evoked currents", "type": "cell-based", "conditions": "at 10 μM compound, glutamate 0.5 mM, holding potential −60 mV", "protocol": "B: Patch Clamp Recording.\nThe whole cell configuration of the patch clamp technique (Hamill et al., Pflugers Arch. 1981, […], 85-100) was used to measure glutamate-evoked currents from postnatal rat cortical neurones. A glass coverslip containing the culture was transferred to the recording chamber (Warner Instrument Corp., Hamden, Conn.) mounted on the stage of an inverted microscope (Nikon, Kingston, UK). The recording chamber contained 1-2 ml extracellular solution (145 mM NaCl, 5.4 mM KCl, 10 mM HEPES, 0.8 mM MgCl2, 1.8 CaCl2, 10 mM glucose and 30 mM sucrose, adjusted to pH 7.4 with 1M NaOH) and was constantly perused at a rate of 1 ml/min. Recordings were performed at room temperature (20-22° C.) using an Axopatch 200B amplifier (Axon Instruments Ltd., Foster City, Calif.). Data acquisition and analysis was performed using Signal software (Cambridge Electronic Design Ltd., Cambridge, UK). Pipettes were manufactured from GC120F-10 glass (Harvard Apparatus, Edenbridge UK) using a model P-87 electrode puller (Sutter Instruments Co., Novarto, Calif.). The patch electrodes had typical resistances of between 3-5 MQ when filled with intracellular solution (140 mM potassium gluconate, 20 mM HEPES, 1.1 mM EGTA, 5 mM phosphocreatine, 3 mM ATP, 0.3 mM GTP, 0.1 mM Caca2, 5 mM MgCl2, adjusted to pH 7.4 with 1M KOH). […]"}}, "data": [{"smiles": "Cc1cc2c(=O)[nH]c(Cn3cc(CNCc4nccs4)c(C(F)(F)F)n3)nc2s1", "note": "[Example 1, 6-Methyl-2-((4-((thiazol-2-ylmethylamino)methyl)-3-(trifluoromethyl)-1H-pyrazol-1-yl)methyl)thieno[2,3-d]pyrimidin-4(3H)-one]", "values": [{"measurement": "EC50", "setting": "AMPA (GluR1) receptor", "value": 1000, "unit": "nM"}, {"measurement": "percentage increase in steady state current", "setting": "[1]", "value": "235±44", "unit": "%"}]}]}
